The source of these data is patent publication US8921576B2, “Spiroindoline compound, and medicinal agent comprising same” (Kowa Company, Ltd., priority 2011, dated 2014).

Structures are written as SMILES.

The assay concerns the target T1, GST-GK derived from human liver GK (Homo sapiens, UniProt P35557).
T1 construct: made in house; host or cells: Escherichia coli DH5α
T1 sequence (P35557 1-466 isoform P35557-2): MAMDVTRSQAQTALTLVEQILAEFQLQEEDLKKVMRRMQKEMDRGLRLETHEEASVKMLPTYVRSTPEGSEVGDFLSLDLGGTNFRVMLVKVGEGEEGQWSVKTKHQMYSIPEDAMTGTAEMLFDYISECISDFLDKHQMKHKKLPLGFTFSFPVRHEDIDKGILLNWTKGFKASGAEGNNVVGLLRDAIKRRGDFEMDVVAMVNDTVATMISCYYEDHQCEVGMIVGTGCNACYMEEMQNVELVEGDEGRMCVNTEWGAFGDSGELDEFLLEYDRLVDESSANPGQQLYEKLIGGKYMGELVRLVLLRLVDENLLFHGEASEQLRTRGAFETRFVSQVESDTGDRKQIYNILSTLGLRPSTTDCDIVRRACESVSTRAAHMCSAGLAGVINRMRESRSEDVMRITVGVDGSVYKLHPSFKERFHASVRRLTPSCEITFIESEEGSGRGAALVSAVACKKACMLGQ
The experiment in a line: In vitro GK activity measurement test (G6PDH-coupled, OD340). The class given is biochemical. The following applies: test compound 1 μmol/L; glucose 2.5 mmol/L; 25° C.; OD340 slope with compound / without compound; read-out: GK activation rate (%). From the text:
cDNA (GenBank Accession No. NM_033507, human glucokinase, variant 2) encoding human liver-type GK polypeptide was cloned by performing a polymerase chain reaction (hereinafter referred to as “PCR”) using a human liver cDNA library (Human liver QUICK-Clone cDNA, TAKARA BIO INC.), and the thus cloned cDNA was then introduced into an expression vector (pGEX-3X, GE Healthcare Japan) for glutathione S transferase (hereinafter referred to as GST) fusion protein expression. The resulting vector was introduced into Escherichia coli (Competent high DH5α, Toyobo Co., Ltd.), and the transformed Escherichia coli was then cultured at 37° C. Thereafter, Isopropyl β-D-1-thiogalactopyranoside (final concentration: 1 mmol/L, Sigma Aldrich Japan) was added to the culture, and the obtained mixture was then cultured at 30° C. for 3 hours. Thereafter, a cell mass was recovered. The recovered cell mass was subjected to freezing-and-thawing, and the resulting cell mass was then suspended in phosphate buffer with final concentration of 1% Triton X-100, followed by disintegration with an ultrasonic disruptor. The homogenate was centrifuged at 33,200 rpm at 4° C. for 1 hour. Thereafter, the supernatant was recovered, and a GST-GK fusion protein was then purified using a glutathione column (GSTrap FF, GE Healthcare Japan). The obtained GST-GK fusion protein was divided into some portions each having a small volume, and the thus divided proteins were then preserved at −80° C.
A GK assay method was carried out at 25° C. at a final incubation volume of 100 μL in a flat-bottom 96-well assay plate. An assay buffer comprised 25 mmol/L Hepes buffer (pH 7.1), 25 mmol/L KCl, 2.5 mmol/L or 10 mmol/L D-glucose, 5 mmol/L ATP, 1 mmol/L nicotinamide adenine dinucleotide phosphate (abbreviated as NADP), 2 mmol/L MgCl2, 1 mmol/L dithiothreitol (DTT), 2 units/mL glucose-6 phosphate dehydrogenase (G6PDH), and 1 μg/mL GST-GK derived from human liver GK. ATP, G6PDH, and NADP were purchased from Roche Diagnostics. […] The thus mixed solution was preincubated in an incubator in which the temperature was controlled at 25° C. for 15 minutes. Subsequently, the reaction was initiated by adding 10 μL of the GST-GK solution to the reaction mixture, resulting in a final concentration of 0.1 μg/mL. After initiation of the reaction, an increase in the optical concentration at 340 nm (OD340) was monitored with a microplate spectrophotometer (Varsamax, Molecular Devices Japan K.K.) every 10 seconds over an incubation period of 10 minutes. An inclination of the OD340 increase was defined as raw data. The GK activating rate was indicated as a numerical value obtained from the expression: (Inclination of OD340 increase by addition of the test compound)/(inclination of OD340 increase without addition of the test compound). The results of the GK activating rate obtained at a test compound concentration of 1 μmol/L under the condition of a glucose concentration of 2.5 mmol/L are shown in the following table.
On to `CNC(=O)CCCSc1cnc(NC(=O)N2CC3(CCN(C(=O)OC)C3)c3cc(Cl)ccc32)s1` (stereo not shown) [Example 164, methyl 5-chloro-1-((5-((4-(methylamino)-4-oxobutyl)thio)thiazol-2-yl)carbamoyl)spiro[indoline-3,3′-pyrrolidine]-1′-carboxylate], for which the activity at 1 µM is 567%.
With `COc1ccc2nc(NC(=O)N3CC4(CCN(C(C)=O)C4)c4cc(S(=O)(=O)N(CCO)CC5CC5)ccc43)sc2n1` (stereo not shown) [Example 302, 1′-acetyl-5-(N-(cyclopropylmethyl)-N-(2-hydroxyethyl)sulfamoyl)-N-(5-methoxythiazolo[5,4-b]pyridin-2-yl)spiro[indoline-3,3′-pyrrolidine]-1-carboxamide], the activity at 1 µM was found to be 843%.
Then `CNC(=O)N1CC[C@@]2(C1)CN(C(=O)Nc1ncc(F)s1)c1ccc(Cl)cc12` [Example 374, (R)-5-chloro-N1-(5-fluorothiazol-2-yl)-N1′-methylspiro[indoline-3,3′-pyrrolidine]-1,1′-dicarboxamide], with 437%.
Then `O=C(CCCNC(=O)N1CCC2(C1)CN(C(=O)Nc1ncc(Cl)s1)c1ccc(Cl)cc12)N1CCC1` (stereo not shown) [Example 471, N1′-(4-(Azetidin-1-yl)-4-oxobutyl)-5-chloro-N1-(5-chlorothiazol-2-yl)spiro[indoline-3,3′-pyrrolidine]-1,1′-dicarboxamide], with 470%; and `CC(=O)N1CCC2(C1)CN(C(=O)Nc1ncc(Cl)s1)c1ccc(C(F)(F)F)cc12` (stereo not shown) [Example 431, 1′-acetyl-N-(5-chlorothiazol-2-yl)-5-(trifluoromethyl)spiro[indoline-3,3′-pyrrolidine]-1-carboxamide], with 432%; and `COC(=O)N1CCC2(C1)CN(C(=O)Nc1ncc(SCCCO)s1)c1ccc(Cl)cc12` (stereo not shown) [Example 161, Methyl 5-chloro-1-((5-((3-hydroxypropyl)thio)thiazol-2-yl)carbamoyl)spiro[indoline-3,3′-pyrrolidine]-1′-carboxylate], with 514%.
Then `COCCN(Cc1ccccc1)S(=O)(=O)c1ccc2c(c1)C1(CCN(C(C)=O)C1)CN2C(=O)Nc1nc2ccc(OC)nc2s1` (stereo not shown) [Example 288, 1′-Acetyl-5-(N-benzyl-N-(2-methoxyethyl)sulfamoyl)-N-(5-methoxythiazolo[5,4-b]pyridin-2-yl)spiro[indoline-3,3′-pyrrolidine]-1-carboxamide], with 793%; and `CN(C)CCN(Cc1ccccc1)S(=O)(=O)c1ccc2c(c1)C1(CCN(C=O)C1)CN2C(=O)Nc1ncc(F)s1` (stereo not shown) [Example 308, 5-(N-benzyl-N-(2-(dimethylamino)ethyl)sulfamoyl)-N-(5-fluorothiazol-2-yl)-1′-formylspiro[indoline-3,3′-pyrrolidine]-1-carboxamide], with 504%; and `CONC(=O)CCCSc1cnc(NC(=O)N2CC3(CCN(C(=O)OC)C3)c3cc(Cl)ccc32)s1` (stereo not shown) [Example 168, methyl 5-chloro-1-((5-((4-(methoxyamino)-4-oxobutyl)thio)thiazol-2-yl)carbamoyl)spiro[indoline-3,3′-pyrrolidine]-1′-carboxylate], with 462%.
For `CONC(=O)N1CCC2(C1)CN(C(=O)Nc1ncc(Cl)s1)c1ccc(Cl)cc12` (stereo not shown) [Example 480, 5-Chloro-N1-(5-chlorothiazol-2-yl)-N1′-methoxyspiro[indoline-3,3′-pyrrolidine]-1,1′-dicarboxamide], the activity at 1 µM amounted to 477%.
As to `COC(=O)N1CCC2(C1)CN(C(=O)Nc1ncc(SCCCN(C)C)s1)c1ccc(Cl)cc12` (stereo not shown) [Example 180, Methyl 5-chloro-1-((5-((3-(dimethylamino)propyl)thio)thiazol-2-yl)carbamoyl)spiro[indoline-3,3′-pyrrolidine]-1′-carboxylate], the activity at 1 µM came to 442%.
Turning to `COC(=O)N1CCC2(C1)CN(C(=O)Nc1ncc(Oc3cccc(C(N)=O)c3)s1)c1ccc(Cl)cc12` (stereo not shown) [Example 186, methyl 1-((5-(3-carbamoylphenoxy)thiazol-2-yl)carbamoyl)-5-chlorospiro[indoline-3,3′-pyrrolidine]-1′-carboxylate], the activity at 1 µM amounted to 583%.
The value for `COC(=O)N1CCC2(C1)CN(C(=O)Nc1nc3ccc(OC)nc3s1)c1ccc(S(=O)(=O)N(CCC(=O)O)Cc3ccccc3)cc12` (stereo not shown) [Example 307, 3-(N-benzyl-1′-(methoxycarbonyl)-1-((5-methoxythiazolo[5,4-b]pyridin-2-yl)carbamoyl)spiro[indoline-3,3′-pyrrolidin]-5-ylsulfonamido)propionic acid] was 887%.
The value for `CNC(=O)N1CCC2(C1)CN(C(=O)Nc1ncc(Cl)s1)c1ccc(Cl)cc12` (stereo not shown) [Example 373, 5-chloro-N1-(5-chlorothiazol-2-yl)-N1′-methylspiro[indoline-3,3′-pyrrolidine]-1,1′-dicarboxamide] was 476%; that for `CC(=O)N1CCC2(C1)CN(C(=O)Nc1ncc(Cl)s1)c1ccc(Br)cc12` (stereo not shown) [Example 3, 1′-acetyl-5-bromo-N-(5-chlorothiazol-2-yl)spiro[indoline-3,3′-pyrrolidine]-1-carboxamide] was 716%.
Then `CNC(=O)N1CC[C@@]2(C1)CN(C(=O)Nc1ncc(OC)s1)c1ccc(Cl)cc12` [Example 380, (R)-5-Chloro-N1-(5-methoxythiazol-2-yl)-N1′-methylspiro[indoline-3,3′-pyrrolidine]-1,1′-dicarboxamide], with 636%; and `COc1cnc(NC(=O)N2CC3(CCN(C(=O)CO)C3)c3cc(C(F)(F)F)ccc32)s1` (stereo not shown) [Example 441, 1′-(2-Hydroxyacetyl)-N-(5-methoxythiazol-2-yl)-5-(trifluoromethyl)spiro[indoline-3,3′-pyrrolidine]-1-carboxamide], with 416%; and `COC(=O)N1CCC2(C1)CN(C(=O)Nc1ncc(SC(C)CO)s1)c1ccc(Cl)cc12` (stereo not shown) [Example 141, methyl 5-chloro-1-((5-((1-hydroxypropan-2-yl)thio)thiazol-2-yl)carbamoyl)spiro[indoline-3,3′-pyrrolidine]-1′-carboxylate], with 574%.
Consider `COC(=O)N1CC[C@@]2(C1)CN(C(=O)Nc1ncc(F)s1)c1ccc(Cl)cc12` [Example 355, (S)-methyl 5-chloro-1-((5-fluorothiazol-2-yl)carbamoyl)spiro[indoline-3,3′-pyrrolidine]-1′-carboxylate], for which the activity at 1 µM came to 636%.
As to `COC(=O)N1CCC2(C1)CN(C(=O)Nc1ncc(SCCCNS(=O)(=O)C3CC3)s1)c1ccc(Cl)cc12` (stereo not shown) [Example 179, methyl 5-chloro-1-((5-((3-(cyclopropanesulfonamido)propyl)thio)thiazol-2-yl)carbamoyl)spiro[indoline-3,3′-pyrrolidine]-1′-carboxylate], the activity at 1 µM amounted to 669%.
With `CNC(=O)N1CC[C@@]2(C1)CN(C(=O)Nc1ncc(F)s1)c1ccc(C(F)(F)F)cc12` [Example 487, (R)—N1-(5-Fluorothiazol-2-yl)-N1′-methyl-5-(trifluoromethyl)spiro[indoline-3,3′-pyrrolidine]-1,1′-dicarboxamide], the activity at 1 µM was 659%.
Then `COC(=O)N1CCC2(C1)CN(C(=O)Nc1ncc(Cl)s1)c1ccc(Br)cc12` (stereo not shown) [Example 13, Methyl 5-bromo-1-((5-chlorothiazol-2-yl)carbamoyl)spiro[indoline-3,3′-pyrrolidine]-1′-carboxylate], with 678%.
